In patent publication US11173116B2, “Drug delivery system kit comprising an enzyme” (INDUSTRY-ACADEMIC COOPERATION FOUNDATION, YONSEI UNIVERSITY, priority 2018, dated 2021):
Structures can show the parent of a compound that is named as a salt.

Test system: HeLa cells
Test: Cytotoxicity test, MTT assay
Assay type: cell-based
Settings: amount of 1 μg
Description: HeLa cells were cultured for 2 to 3 days in a 100 mm culture dish (SPL, Pocheon-si, Korea) in a 5% CO2 incubator. When 95% of the cells were grown, the cells were detached by trypsin-EDTA treatment. Thereafter, for a toxicity test, the cells were inoculated at a density of 7,000 cells/well in a 24-well plate. For cell attachment, the cells were cultured for one day, and for cytotoxicity and anticancer assays, the enzyme, DOX, and DOX-free hollow drug delivery system in the culture medium were used to treat the cells separately. After the materials were cultured for one day, the cytotoxicity was measured using a 3-(4,5-dimethylthiazol-2-yl)-2,5-diphenyltetrazolium bromide (MTT) assay. An MTT solution (5 mg/mL) in PBS was used to treat the cells for 2 hours in an incubator, the cells were dissolved in DMSO, and the absorbance at a wavelength of 540 nm was measured using a plate reader (SpectraMax 340 PC; Molecular Devices, Sunnyvale, Calif., USA).
The anticancer effect of the DOX-conjugated drug delivery system was investigated through a cytotoxicity test. In this case, 1 μg of the DOX-conjugated hollow drug delivery systems of Preparation Examples 4 and 5 were used. A cell culture medium was composed of 90% Dulbecco's Modified Eagle Medium, 10% fetal bovine serum, and 1% penicillin-streptomycin-glutamine. […]

## COc1cccc2c1C(=O)c1c(O)c3c(c(O)c1C2=O)C[C@@](O)(C(=O)CO)C[C@@H]3O[C@H]1C[C@H](N)[C@H](O)[C@H](C)O1 [DOX, doxorubicin hydrochloride]
  cytotoxicity: very high toxicity
